In US20070036843A1, “Non-ionic non-aqueous vehicles for topical and oral administration of carrier-complexed active agents” (Collegium Pharmaceutical, Inc., priority 2005, published 2007):

Test: Release of albuterol from resinate in various vehicles (membrane-bottomed insert over wells of aqueous solution, simulating topical application to skin)
Assay type: physicochemical
Conditions: room temperature, sampled 0.5, 1, 2 and 4 hours
Experimental: Albuterol was detected by HPLC on a Waters “Resolve” 5 micron spherical C18 resin column, with a mobile phase of 70% buffer and 30% methanol. Buffer was 4.4 g 1-heptane sulfonic acid in 100 g DI water, adjusted to pH 3.2±0.1 with glacial acetic acid. Albuterol extraction solvent was 10% v/v 0.5 M Na Acetate in ethanol. A stock solution of 0.5 mg albuterol/ml extraction buffer was diluted with 25 volumes of “diluent” (30:70 methanol:DI water, v:v) at the time of use. Samples were extracted to determine albuterol content by transferring 200 mg albuterol resin to a 250 ml flask, using extraction solvent; bringing the volume to about 220 ml of extraction solvent; shaking overnight at room temperature; adding extraction solvent to 250 ml; filtering an aliquot; and diluting filtered solution with 24 volumes of diluent. This solution was analyzed by HPLC, and the amount was determined by comparison with a chromatogram of the standard.
A system was developed to simulate the effects of topical application of a resin-bound drug in a vehicle to skin. […]
The experimental design allowed the pores of the membrane to fill with the aqueous solution. […] Wells were sampled at various times and the fluid was analyzed for albuterol. […]
7.5 g phosphate buffer (pH 6.8; 0.05 M) was added to each well. […] The inserts were removed, and the fluid in the wells (12 in all) was analyzed for albuterol by HPLC. […]

Release of albuterol (albuterol resinate directly in ionic aqueous solution (phosphate buffer pH 6.8, 0.05 M), no vehicle, compared with NINA vehicles): fastest
Release of albuterol (albuterol resinate in hydrophobic castor oil/colloidal silica (2.5%) vehicle without surfactant, phosphate buffer pH 6.8 in well): not detectable
SMILES: CC(C)(C)NCC(O)c1ccc(O)c(CO)c1 (centres unmarked) [albuterol, Albuterol]
